Common to all, as to format: cell-based
Data set [1] concerns Respiratory syncytial virus recombinant with luciferase (RSV-Luc5) in HEp-2 cells. Briefly: HEp-2 RSV-Luc5 384-well assay (EC50 RSVFLUC Hep2-384 v2, Example V). Particulars: human respiratory syncytial virus, HEp-2, 72 h, read-out: RSV Hep-2 FLuc EC50 (v2) (nM) (per Ex. V). In outline:
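HEp-2 cells (4,000/well) infected with RSV-Luc5 at MOI 0.5 in DMEM/10% FBS with compound, 10-point 1:3 dilutions, 3 days at 37 °C. Replication read by One-Glo luminescence, normalized to remdesivir (0%) and DMSO (100%). EC50 from non-linear regression as concentration giving 50% reduction.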

The test system is the same in data set [2]. As to the kind of experiment: HEp-2 RSV-Luc5 384-well assay (EC50 RSVFLUC Hep2-384, Example R). Particulars: human respiratory syncytial virus, HEp-2, 72 h, read-out: RSV Hep-2 FLuc EC50 (nM) (per Ex. R). The source says: HEp-2 cell line was purchased from ATCC (Manassas, VA Cat #CCL-23) and maintained in Dulbecco's […] (DMEM) (Corning, New York, NY, Cat #15-018CM) supplemented with 10% fetal bovine serum (FBS) (Hyclone, Logan, UT, Cat #SH30071-03) and 1× Penicillin-Streptornycin-L-Glutamine (Corning, New York, NY, Cat #30-009-CI). Cells were passaged 2 times per week to maintain sub-confluent densities and were used for experiments at passage 5-20. Respiratory syncytial virus recombinant with luciferase (RSV-Luc5) direct pelleted virus (≥1×107 TCID50/ml) was purchased from Microbiologics (Saint Cloud, MN). Viral replication was determined in HEp-2 cells in the following manner.
Compounds are prepared in 384-well polypropylene plates (Greiner, Monroe, NC, Cat #784201) with 8 compounds per plate in grouped replicates of 4 at 10 serially diluted concentrations (1:3).
HEp-2 cells were suspended in DMEM (supplemented with 10% FBS and 1×Penicillin-Streptonycin-L-Glutimine) and 60 μL of 4,000 cells per well were seeded into 384-well plates (Greiner, Monroe, NC, Cat #781080) using Biotek MultiFlo dispenser. After overnight incubation at 37° C. and 5% CO2, 0.4 uL of three-fold serial dilutions of compound was added to each well using a Biomek FX pipette station. RSV-Luc5 viruses were diluted in DMEM (supplemented with 10% FBS and 1× Penicillin-Streptonycin-L-Glutainie) at an MOI=0.5. Virus suspension was added to each 384-well compound plate at 20 uL per well using a Biotek MultiFlo dispenser. The assay plates were incubated for 3 days at 37° C. and 5% CO2. At the end of incubation, One-Glo reagent (Promega, Madison, WI, Cat #E6120) was prepared. The assay plate and the reagent were equilibrated to room temperature for 30 minutes. 50 uL per well of medium was removed from assay plate and 40 uL per well of One-Glo reagent was added to each plate by Biomek FX. The plates were sat at room temp for 15 minutes. Viral replication was then assessed by measuring luminescence signal using and Envision plate reader. Remdesivir was used as positive control and DMSO was used as negative control. Values were normalized to the positive and negative controls (as 0% and 100% replication, respectively) and data was fitted using non-linear regression analysis by Gilead's dose response tool. The EC50 value for each compound was then determined as the concentration reducing the viral replication by 50%.

Data set [3] is described as follows: RSV HEP2-CC50-384-V2 (per Ex. V). Particulars: human.
The subject of data set [4] is Recombinant Respiratory Syncytial virus strain A2 containing the firefly luciferase reporter (RSV-Fluc) in NHBE cells. As to the kind of experiment: RSV NHBE FLuc EC50 (Example I). Particulars: human respiratory syncytial virus, 72 h, read-out: RSV NHBE FLuc EC50 (nM) (per Ex. I). The source says:
Normal human bronchial epithelial (NHBE) cells are purchased from Lonza (Walkersville, MD Cat #CC-2540) and maintained in Bronchial Epithelial Cell Growth Medium (BEGM) (Lonza, Walkersville, MD, Cat #CC-3170) with all provided supplements in the BulletKit. Cells are passaged 2-3 times per week to maintain sub-confluent densities and are used for experiments at passages 2-4.
Recombinant Respiratory Syncytial virus strain A2 containing the firefly luciferase reporter between the P and M genes (RSV-Fluc, 6.3×10^6 TCID50/mL) is purchased from Viratree (Durham, NC, Cat #R^145).
NHBE cells (5×10^3/well) are seeded in 100 μL white wall/clear bottom 96-well plates (Corning) with culture medium and are incubated for 24 hours at 37° C. with 5% CO2. On the following day, three-fold serial dilutions of compounds prepared in DMSO are added to the wells using the HP D300e digital dispenser with normalization to the highest concentration of DMSO in all wells. The cells are then infected with RSV-Fluc diluted with BEGM media at an MOI of 0.1 for a final volume of 200 μL media/well. Uninfected and untreated wells are included as controls to determine compound efficacy against RSV-Fluc. Following incubation with compound and virus for three days at 37° C. with 5% CO2, 100 μL of culture supernatant is removed from each well and replaced with 100 μL of ONE-Glo luciferase reagent (Promega, Madison, WI, Cat #E6110). The plates are gently mixed by rocking for 10 minutes at 21° C. and luminescence signal is measured using an Envision plate reader (PerkinElmer). Values are normalized to the uninfected and infected DMSO controls (0% and 100% infection, respectively). Non-linear regression analysis is applied to determine the compound concentration at which 50% luminescence signal is reduced (EC50) using the XLfit4 add-in for MICROSOFT®EXCEL®. All experiments are performed in duplicate with two technical repeats each.

In data set [5] the test system is dengue virus type 2 in Huh7 hepatoblastoma cells. Briefly: Dengue Virus-2 Huh-7 EC50 (Example W). The conditions noted are these: MOI of 0.07, CPE, neutral red dye, read-out: Dengue Virus-2 Huh-7 EC50 (nM) (per Ex. W). As to the method: (§1) Huh7 hepatoblastoma cells were seeded onto 96-well plates and incubated at 37° C. with 5% CO2 overnight. The plates were seeded at a cell concentration that will yield >70% confluent monolayers in each well after overnight incubation. Eight 3-fold serial dilutions of compounds were diluted in test media (MEM supplemented with 2% FBS and 50 μg/mL gentamicin). The highest test compound concentration was 50 μg/mL. 100 μL of each concentration was added to 5 test wells on the 96-well plate. Of these 5 test wells, 3 wells of each dilution were infected with dengue virus type 2, diluted in test media (approximately 2000 CCID50 per well for an MOI of 0.07). Test medium (100 μL) with no virus was added to 2 wells to represent the uninfected cytotoxicity controls. Six additional infected wells received 100 μL media alone as untreated virus controls. Further, 100 μL of media alone was added to 6 uninfected wells to serve as uninfected, untreated controls. Cultures were incubated at 37° C.+5% CO2 until >80% CPE is observed. After cytopathic effect (CPE) is observed microscopically, 0.011% neutral red dye was added for approximately 2 hours. The neutral red dye was removed and wells were rinsed once with PBS to remove residual, unincorporated dye. A 50:50 Sorensen citrate buffer/ethanol solution was added and incubated at room temperature for >30 minutes with agitation, followed by measurement of neutral red dye using a spectrophotometer at 540 nm. The resulting optical density measurement was converted to percent signal of the infected, untreated cell control normalizing to virus controls. EC50 and CC50 values were determined by linear regression analysis.

The nature of data set [6]: in vitro. Particulars: human. As for the experimental part:
as §1

Usually EC50 stands for the concentration at which the effect is half-maximal. The CC50 is the concentration giving 50% cytotoxicity. Lower therefore signals harm at low concentration.

On to `CCCCCCCCCCCCCCCCCCOC[C@H](COP(=O)(O)OC[C@@]1(C#N)O[C@@H](c2ccc3c(N)ncnn23)[C@H](O)[C@@H]1O)OCc1ccc(OC)c(C#N)c1` [Compound 9, ((2R,3S,4R,5S)-5-(4-aminopyrrolo[2,1-f][1,2,4]triazin-7-yl)-2-cyano-3,4-dihydroxytetrahydrofuran-2-yl)methyl ((R)-2-((3-cyano-4-methoxybenzyl)oxy)-3-(octadecyloxy)propyl) hydrogen phosphate], for which the EC50 in data set [1] stood at 145 nM; in data set [2], 53 nM. Further, the CC50 at 3 days in data set [3] is > 48500 nM.

Regarding `CCCCCCCCCCCCCCCCCCC[C@H](COP(=O)(O)OC[C@@]1(C#N)O[C@@H](c2ccc3c(N)ncnn23)[C@H](O)[C@@H]1O)OCc1ccc(C#N)c(OC)c1` [Compound 27, ((2R,3S,4R)-5-(4-aminopyrrolo[2,1-f][1,2,4]triazin-7-yl)-2-cyano-3,4-dihydroxytetrahydrofuran-2-yl)methyl ((R)-2-((4-cyano-3-methoxybenzyl)oxy)henicosyl) hydrogen phosphate], the values for the EC50 in data set [4] and in data set [2] were 42 nM and 232 nM, respectively.

For the compound `CCCCCCCCCCCCCCCCCCOC[C@H](COP(=O)(O)OC[C@@]1(C#N)O[C@@H](c2ccc3c(N)ncnn23)[C@H](O)[C@@H]1O)Oc1cccc(C#N)c1` [Compound 50, ((2R,3S,4R,5S)-5-(4-aminopyrrolo[2,1-f][1,2,4]triazin-7-yl)-2-cyano-3,4-dihydroxytetrahydrofuran-2-yl)methyl ((R)-2-(3-cyanophenoxy)-3-(octadecyloxy)propyl) hydrogen phosphate], the EC50 in data set [1] came to 91 nM; in data set [4], 18 nM; in data set [2], 12 nM. Also, the CC50 at 3 days in data set [3] is > 50000 nM.

As to `CCCCCCCCCCCCCCCCCCOC[C@H](COP(=O)(O)OC[C@@]1(C#N)O[C@@H](c2ccc3c(N)ncnn23)[C@H](O)[C@@H]1O)OCc1cncc(C#N)c1` [Compound 66, ((2R,3S,4R)-5-(4-aminopyrrolo[2,1-f][1,2,4]triazin-7-yl)-2-cyano-3,4-dihydroxytetrahydrofuran-2-yl)methyl ((R)-2-((5-cyanopyridin-3-yl)methoxy)-3-(octadecyloxy)propyl) hydrogen phosphate], the EC50 amounted to 56 nM in data set [1], 50 nM in data set [4] and 21 nM in data set [2]. Also, in data set [3], the CC50 at 3 days turned out to be 49100 nM.

Turning to `CCCCCCCCCCCCCCCCCCOC[C@@H](COP(=O)(O)OC[C@@]1(C#N)O[C@@H](c2ccc3c(N)ncnn23)[C@H](O)[C@@H]1O)OCc1ccc(C#N)cc1OC` [Compound 67, ((2R,3S,4R)-5-(4-aminopyrrolo[2,1-f][1,2,4]triazin-7-yl)-2-cyano-3,4-dihydroxytetrahydrofuran-2-yl)methyl ((S)-2-((4-cyano-2-methoxybenzyl)oxy)-3-(octadecyloxy)propyl) hydrogen phosphate], the EC50 came to 28 nM in data set [4] and 229 nM in data set [2].

Take `CCCCCCCCCCCCCCOC[C@H](COP(=O)(O)OC[C@@]1(C#N)O[C@@H](c2ccc3c(N)ncnn23)[C@H](O)[C@@H]1O)Oc1ccc(C#N)cn1` [Compound 71]: the EC50 was found to be 33000 nM in data set [5], 2580 nM in data set [1] and 199 nM in data set [4]. Also, in data set [6], the CC50 is > 50000 nM. For the same compound, the CC50 at 3 days in data set [3] was > 50000 nM.

For `CCCCCCCCCCCCCCOC[C@H](COP(=O)(O)OC[C@@]1(C#N)O[C@@H](c2ccc3c(N)ncnn23)[C@H](O)[C@@H]1O)Oc1ccc(C#N)nc1` [Compound 77, ((2R,3S,4R)-5-(4-aminopyrrolo[2,1-f][1,2,4]triazin-7-yl)-2-cyano-3,4-dihydroxytetrahydrofuran-2-yl)methyl ((R)-2-((6-cyanopyridin-3-yl)oxy)-3-(tetradecyloxy)propyl) hydrogen phosphate], the concentration for a half-maximal effect (EC50) in data set [1] was determined as 90 nM; in data set [4], 12 nM; in data set [2] it was 222 nM. In data set [3], the CC50 at 3 days was > 50000 nM.
